Measurements published in patent publication US20230180754A1, “HETEROCYCLIC COMPOUNDS FOR THE CONTROL OF INVERTEBRATE PESTS” (priority 2020, published 2023).

Tests used:
Type in all cases: in vivo
[1] = system: yellow fever mosquito (Aedes aegypti); assay: whole plant or invertebrate; settings: 48 h, larval mortality after 2 days, read-out: mortality in comparison with untreated controls
Protocol: For evaluating control of yellow fever mosquito (Aedes aegypti) the test unit consisted of 96-well-microtiter plates containing 200 μl of tap water per well and 5-15 freshly hatched A. aegypti larvae.
The active compounds were formulated using a solution containing 75% (v/v) water and 25% (v/v) DMSO. Different concentrations of formulated compounds or mixtures were sprayed onto the insect diet at 2.5 μl, using a custom-built micro atomizer, at two replications.
After application, microtiter plates were incubated at 28±1° C., 80±5% RH for 2 days. Larval mortality was then visually assessed.

[2] = system: boll weevil (Anthonomus grandis); assay: Boll weevil (Anthonomus grandis), microtiter plate insect diet test; settings: 120 h, egg and larval mortality after 5 days, read-out: mortality in comparison with untreated controls
Protocol: (§1) For evaluating control of boll weevil (Anthonomus grandis) the test unit consisted of 96-well-microtiter plates containing an insect diet and 5-10 A. grandis eggs. The compounds were formulated using a solution containing 75% v/v water and 25% v/v DMSO. Different concentrations of formulated compounds were sprayed onto the insect diet at 5 μl, using a custom-built micro atomizer, at two replications.
After application, microtiter plates were incubated at about 25±1° C. and about 75±5% relative humidity for 5 days. Egg and larval mortality was then visually assessed.

[3] = system: tobacco budworm (Heliothis virescens); assay: Tobacco budworm (Heliothis virescens), microtiter plate insect diet test; settings: 120 h, egg and larval mortality after 5 days, read-out: mortality in comparison with untreated controls
Protocol: as §1, with “of tobacco budworm (Heliothis virescens)” for “of boll weevil (Anthonomus grandis)”, “and 15-25 H. virescens” for “and 5-10 A. grandis”, “at 10” for “at 5”
After application, microtiter plates were incubated at about 28±1° C. and about 80±5% relative humidity for 5 days. Egg and larval mortality was then visually assessed.

[4] = system: green peach aphid (Myzus persicae); assay: Green peach aphid (Myzus persicae), systemic artificial diet/membrane test; settings: 72 h, aphid mortality after 3 days, read-out: mortality in comparison with untreated controls
Description: For evaluating control of green peach aphid (Myzus persicae) through systemic means the test unit consisted of 96-well-microtiter plates containing liquid artificial diet under an artificial membrane.
The compounds were formulated using a solution containing 75% v/v water and 25% v/v DMSO. Different concentrations of formulated compounds were pipetted into the aphid diet, using a custom-built pipette, at two replications.
After application, 5-8 adult aphids were placed on the artificial membrane inside the microtiter plate wells. The aphids were then allowed to suck on the treated aphid diet and incubated at about 23 ±1° C. and about 50 ±5% relative humidity for 3 days. Aphid mortality and fecundity was then visually assessed.

[5] = system: diamond back moth (Plutella xylostella); assay: Diamond back moth (Plutella xylostella), cabbage leaf disc dip test; settings: foliar, 72 hours after treatment, 3rd instar larvae, read-out: mortality in comparison with untreated controls
Protocol: The active compound was dissolved at the desired concentration in a mixture of 1:1 (vol:vol) distilled water:acetone. Surfactant (Kinetic) was added at a rate of 0.01% (vol/vol). The test solution was prepared at the day of use. Cabbage leaf discs (60 mm in diameter) were dipped in test solution and air-dried. Treated leaves were placed in petri dishes lined with moistened filter paper and inoculated with ten 3rd instar larvae. Mortality was recorded 72 hours after treatment. Feeding damages were also recorded using a scale of 0-100%.

[6] = system: orchid thrips (Dichromothrips corbetti); assay: Orchid thrips (Dichromothrips corbetti), floral-immersion technique; settings: 72 hours after treatment, adult thrips, read-out: mortality in comparison with untreated controls
Protocol: Dichromothrips corbetti adults used for bioassay were obtained from a colony maintained continuously under laboratory conditions. For testing purposes, the test compound was diluted in a 1:1 mixture of acetone:water (vol:vol), plus Kinetic at a rate of 0.01% v/v.
Thrips potency of each compound was evaluated by using a floral-immersion technique. Each orchid petal was dipped into treatment solution and allowed to dry in Petri dishes. Treated petals were placed into individual re-sealable plastic along with about 20 adult thrips. All test arenas were held under dark condition and a temperature of about 28° C. for duration of the assay. The percent mortality was recorded 72 hours after treatment.

[7] = system: southern armyworm (Spodoptera eridania), 2nd instar larvae; assay: Southern armyworm (Spodoptera eridania), 2nd instar larvae, sprayed lima bean plants; settings: 96 h, 4 days after treatment, read-out: mortality in comparison with untreated controls
Description: The active compounds were formulated by a Tecan liquid handler in 100% cyclohexanone as a 10′000 ppm solution supplied in tubes. The 10′000 ppm solution was serially diluted in 100% cyclohexanone to make interim solutions. These served as stock solutions for which final dilutions were made by the Tecan in 50% acetone:50% water (v/v) into 10 or 20m1 glass vials. A nonionic surfactant (Kinetic®) was included in the solution at a volume of 0.01% (v/v). The vials were then inserted into an automated electrostatic sprayer equipped with an atomizing nozzle for application to plants/insects. Lima bean plants (variety Sieva) were grown 2 plants to a pot and selected for treatment at the 1st true leaf stage. Test solutions were sprayed onto the foliage by an automated electrostatic plant sprayer equipped with an atomizing spray nozzle. The plants were dried in the sprayer fume hood and then removed from the sprayer. Each pot was placed into perforated plastic bags with a zip closure. Ten to 11 armyworm larvae were placed into the bag and the bags zipped closed. Test plants were maintained in a growth room at about 25° C. and about 20-40% relative humidity for 4 days, avoiding direct exposure to fluorescent light (14:10 light:dark photo-period) to prevent trapping of heat inside the bags. Mortality and reduced feeding were assessed 4 days after treatment, compared to untreated control plants.

[8] = system: rice green leafhopper (Nephotettix virescens); assay: Rice green leafhopper (Nephotettix virescens), sprayed rice seedlings; settings: after 72 hours, adults, read-out: mortality in comparison with untreated controls
Protocol: Four to five-week old rice seedlings with cut upper leaf portion were cleaned and washed 24 hours before spraying. The active compounds were formulated in 1:1 acetone:water (vol:vol), and 0.01% vol/vol surfactant (Kinetic) was added. Potted rice seedlings were sprayed with 5-6 ml test solution, air dried, covered with Mylar cages and inoculated with 10 adults. Treated rice plants were kept at about 28-29° C. and relative humidity of about 50-60%. Percent mortality was recorded after 72 hours.

CC(Nc1noc2c(C(F)(F)F)cc(C(F)(F)F)cc12)c1ncnn1-c1ncccn1 (stereo not drawn) [I-1, N-[1-(2-pyrimidin-2-yl-1,2,4-triazol-3-yl)ethyl]-5,7-bis(trifluoromethyl)-1,2-benzoxazol-3-amine]
≥ 50%: mortality at 2500 ppm [1] | mortality at 2500 ppm [2] | mortality at 2500 ppm [3] | mortality at 2500 ppm [4]

FC(F)(F)c1cc(C(F)(F)F)c2onc(NCc3ncnn3-c3ncccn3)c2c1 [I-2, N-[(2-pyrimidin-2-yl-1,2,4-triazol-3-yl)methyl]-5,7-bis(trifluoromethyl)-1,2-benzoxazol-3-amine]
≥ 50%: mortality at 2500 ppm [1] | mortality at 2500 ppm [2] | mortality at 300 ppm [5] | mortality at 300 ppm [6]

CC(Nc1noc2ncc(C(F)(F)F)cc12)c1ncnn1-c1ncccn1 (stereo not drawn) [I-3, N-[1-(2-pyrimidin-2-yl-1,2,4-triazol-3-yl)ethyl]-5-(trifluoromethyl)isoxazolo[5,4-b]pyridin-3-amine]
≥ 50%: mortality at 2500 ppm [2] | mortality at 2500 ppm [4]

CC(Nc1nn(C)c2ccc(C(F)(F)F)cc12)c1ncnn1-c1ncccn1 (stereo not drawn) [I-4, 1-methyl-N-[1-(2-pyrimidin-2-yl-1,2,4-triazol-3-yl)ethyl]-5-(trifluoromethyl)indazol-3-amine]
≥ 50%: mortality at 2500 ppm [1] | mortality at 2500 ppm [2] | mortality at 2500 ppm [3]

CC(Nc1nsc2c(Cl)cc(Cl)cc12)c1ncnn1-c1ncccn1 (stereo not drawn) [I-5, 5,7-dichloro-N-[1-(2-pyrimidin-2-yl-1,2,4-triazol-3-yl)ethyl]-1,2-benzothiazol-3-amine]
≥ 50%: mortality at 2500 ppm [1] | mortality at 2500 ppm [2] | mortality at 2500 ppm [3] | mortality at 2500 ppm [4] | mortality at 300 ppm [7]

CC(c1ncnn1-c1ncccn1)N(CC1CC1)c1nnc2c(Cl)cc(C(F)(F)F)cn12 (stereo not drawn) [I-6, 8-chloro-N-(cyclopropylmethyl)-N-[1-(2-pyrimidin-2-yl-1,2,4-triazol-3-yl)ethyl]-6-(trifluoromethyl)-[1,2,4]triazolo[4,3-a]pyridin-3-amine]
≥ 50%: mortality at 2500 ppm [4]

CC(Nc1c(C(F)(F)F)c(C(F)(F)C(F)(F)F)nn1C)c1ncnn1-c1ncccn1 (stereo not drawn) [I-7, 2-methyl-5-(1,1,2,2,2-pentafluoroethyl)-N-[1-(2-pyrimidin-2-yl-1,2,4-triazol-3-yl)ethyl]-4-(trifluoromethyl)pyrazol-3-amine]
≥ 50%: mortality at 2500 ppm [3] | mortality at 300 ppm [5] | mortality at 300 ppm [6]

CC(Nc1n[s+]([O-])c2c(Cl)cc(Cl)cc12)c1ncnn1-c1ncccn1 (stereo not drawn) [I-8, 5,7-dichloro-1-oxo-N-[1-(2-pyrimidin-2-yl-1,2,4-triazol-3-yl)ethyl]-1,2-benzothiazol-3-amine]
≥ 50%: mortality at 2500 ppm [2] | mortality at 2500 ppm [4] | mortality at 300 ppm [6] | mortality at 300 ppm [8]

CC(NC1=NS(=O)(=O)c2c(Cl)cc(Cl)cc21)c1ncnn1-c1ncccn1 (stereo not drawn) [I-9, 5,7-dichloro-1,1-dioxo-N-[1-(2-pyrimidin-2-yl-1,2,4-triazol-3-yl)ethyl]-1,2-benzothiazol-3-amine]
≥ 50%: mortality at 2500 ppm [2] | mortality at 2500 ppm [4]

CCC(Nc1noc2c(C(F)(F)F)cc(C(F)(F)F)cc12)c1ncnn1-c1ncccn1 (stereo not drawn) [I-28, N-[1-(2-pyrimidin-2-yl-1,2,4-triazol-3-yl)propyl]-5,7-bis(trifluoromethyl)-1,2-benzoxazol-3-amine]
≥ 50%: mortality at 2500 ppm [2] | mortality at 2500 ppm [3] | mortality at 2500 ppm [4] | mortality at 300 ppm [5] | mortality at 300 ppm [6]
